From PMC12267702, “Harvest time and soil-plant relationship effects on phytochemical constituency and biological activities of psidium guajava L. leaves” (Scientific Reports, 2025)
Marks after values point to notes of the source that are not given here.

Assays:
Assay type in all cases: biochemical
[1] = tested on: α-glucosidase; assay: α-glucosidase inhibition (in vitro anti-diabetic activity)
Source text: (§1) The anti-diabetic effects of the ethyl acetate fraction from dried P. guajava leaves, collected in March and August, were compared in vitro. This comparison involved measuring the inhibition of carbohydrate hydrolyzing enzymes, including α-amylase, α-glucosidase, and β-galactosidase, as detailed in Naguib et al.[28].

[2] = tested on: α-amylase; assay: α-amylase inhibition (in vitro anti-diabetic activity)
Source text: as §1

[3] = tested on: β-galactosidase; assay: β-galactosidase inhibition (in vitro anti-diabetic activity)
Source text: as §1

[4] = DPPH free radical scavenging assay
Description: (§2) Two distinct antioxidant assays were performed to evaluate the radical scavenging potential of the ethyl acetate fraction obtained from dried P. guajava leaves collected in March and August. […] Ascorbic acid served as the reference standard.

[5] = ABTS free radical scavenging assay
Description: as §2

[6] = biological target: T1, 5-LOX enzyme (human recombinant) (Homo sapiens, UniProt P09917); assay: 5-LOX enzyme inhibition assay (5-LOX kit)
T1 construct: purchased Sigma-Aldrich
T1 sequence (P09917 1-674): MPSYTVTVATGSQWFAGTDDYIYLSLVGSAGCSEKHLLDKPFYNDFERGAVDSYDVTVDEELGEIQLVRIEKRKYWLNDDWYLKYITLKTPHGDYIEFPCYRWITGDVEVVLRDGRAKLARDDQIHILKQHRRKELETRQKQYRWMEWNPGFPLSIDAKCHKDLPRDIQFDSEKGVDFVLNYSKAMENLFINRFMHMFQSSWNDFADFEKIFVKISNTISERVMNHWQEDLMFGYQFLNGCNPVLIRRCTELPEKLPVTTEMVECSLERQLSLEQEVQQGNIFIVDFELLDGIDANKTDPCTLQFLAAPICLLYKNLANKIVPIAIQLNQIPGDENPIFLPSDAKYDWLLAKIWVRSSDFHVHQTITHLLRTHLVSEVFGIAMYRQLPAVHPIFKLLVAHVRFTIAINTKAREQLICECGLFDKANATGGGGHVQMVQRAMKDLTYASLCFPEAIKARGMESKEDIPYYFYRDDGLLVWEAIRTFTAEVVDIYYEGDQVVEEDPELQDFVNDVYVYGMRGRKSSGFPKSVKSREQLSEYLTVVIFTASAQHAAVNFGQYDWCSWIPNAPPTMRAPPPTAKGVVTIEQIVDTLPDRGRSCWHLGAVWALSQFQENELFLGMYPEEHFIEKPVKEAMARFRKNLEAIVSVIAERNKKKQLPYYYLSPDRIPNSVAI

C[C@H]1O[C@H](O[C@H]2[C@H](O)[C@@H](O)[C@@H](O[C@H]3[C@H](O)[C@@H](O)C(O)O[C@@H]3CO)O[C@@H]2CO)[C@H](O)[C@@H](O)[C@@H]1N[C@H]1C=C(CO)[C@@H](O)[C@H](O)[C@H]1O (stereo partly drawn) [Acarbose]
α-glucosidase Inhibition % ([1]; 10 µg/mL): 41.89 ± 0.10^c %
α-glucosidase Inhibition % ([1]; 50 µg/mL): 80.36 ± 0.08^d %
α-glucosidase Inhibition % ([1]; 100 µg/mL): 89.57 ± 0.15^f %
α-amylase Inhibition % ([2]; 10 µg/mL): 38.57 ± 0.17^e %
α-amylase Inhibition % ([2]; 50 µg/mL): 79.54 ± 0.12^d %
α-amylase Inhibition % ([2]; 100 µg/mL): 86.31 ± 0.09^f %
β-galactosidase Inhibition % ([3]; 10 µg/mL): 43.78 ± 0.12^e %
β-galactosidase Inhibition % ([3]; 50 µg/mL): 83.72 ± 0.09^f %
β-galactosidase Inhibition % ([3]; 100 µg/mL): 91.40 ± 0.10^g %

O=C1O[C@H]([C@@H](O)CO)C(O)=C1O [Ascorbic acid]
DPPH Inhibition percentages (%) ([4]; 10 µg/ml): 73.12 ± 0.15^g %
DPPH Inhibition percentages (%) ([4]; 50 µg/ml): 82.47 ± 0.13^h %
DPPH Inhibition percentages (%) ([4]; 100 µg/ml): 90.52 ± 0.09^i %
ABTS Inhibition percentages (%) ([5]; 10 µg/ml): 76.02 ± 0.11^g %
ABTS Inhibition percentages (%) ([5]; 50 µg/ml): 81.43 ± 0.08^h %
ABTS Inhibition percentages (%) ([5]; 100 µg/ml): 87.26 ± 0.13^i %

CC(c1cc2ccccc2s1)N(O)C(N)=O (stereo not drawn) [Zileuton]
inhibition at 1 µg/mL ([6]; 1 µg/ml): 40.62 ± 0.08%
inhibition at 10 µg/mL ([6]; 10 µg/ml): 61.39 ± 0.14%
inhibition at 100 µg/mL ([6]; 100 µg/ml): 79.42 ± 0.13%
